Data on 16 compounds can be found in US20260092061A1, “COMPOUNDS FOR TARGETED PROTEIN DEGRADATION” (Amphista Therapeutics Limited, priority 2022, published 2026).

Like-named read-outs stand apart in the source and are kept apart here.

In general, DC50 refers to the concentration at which degradation of the target reaches its halfway point. The term Dmax denotes the largest share of the target that was removed.

The experiment concerns the target T1, BRD9 (Homo sapiens, UniProt Q9H8M2).
T1 sequence (Q9H8M2 1-597): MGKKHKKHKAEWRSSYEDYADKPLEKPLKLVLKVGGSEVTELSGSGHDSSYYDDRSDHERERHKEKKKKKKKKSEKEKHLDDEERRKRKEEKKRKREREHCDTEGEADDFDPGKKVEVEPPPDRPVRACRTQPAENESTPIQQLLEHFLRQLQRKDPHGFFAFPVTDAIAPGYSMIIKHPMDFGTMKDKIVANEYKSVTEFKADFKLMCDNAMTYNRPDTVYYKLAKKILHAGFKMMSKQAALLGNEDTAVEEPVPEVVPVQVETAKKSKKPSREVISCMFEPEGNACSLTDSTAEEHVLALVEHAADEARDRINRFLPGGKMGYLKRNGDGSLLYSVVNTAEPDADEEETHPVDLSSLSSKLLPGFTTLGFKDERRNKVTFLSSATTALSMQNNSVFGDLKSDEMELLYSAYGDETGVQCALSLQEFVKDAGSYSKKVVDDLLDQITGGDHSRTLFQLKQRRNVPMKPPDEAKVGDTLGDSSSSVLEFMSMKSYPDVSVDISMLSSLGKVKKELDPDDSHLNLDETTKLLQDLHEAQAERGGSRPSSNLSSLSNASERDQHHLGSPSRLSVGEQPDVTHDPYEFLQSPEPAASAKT
In words: Degradation of BRD9 (IF), immunofluorescence in MV4-11 cells, 24 hours (Assay Protocol 2). It counts as cell-based. Further details: A suspension of MV4-11 cells (ATCC CRL-9591) was prepared; host or cells: MV4-11. The settings on record: BRD9 degradation; for DC50: read-out: DC50. A digest of the protocol: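 % BRD9 remaining, scaled between DMSO (high) and 100 nM CFT-8634 (low) control wells, derives from mean Alexa 647 contrast in central nuclei by high-content imaging. MV4-11 cells had 24 h compound exposure at 37° C. before PFA fixation, Triton permeabilisation and anti-BRD9 E4Q3F immunostaining.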

Setting [1] is: MV4-11, Assay protocol 2, read-out: Dmax.

Consider `COc1cc(-c2cn(C)c(=O)c(C)c2C)cc(OC)c1CN1CCC(Oc2cccc(C3CCCN3C(=O)/C(C#N)=C/C(C)(C)C)c2)CC1` (mixture of isomers) [Compound B48, (E/Z)-2-(2-(3-((1-(2,6-dimethoxy-4-(1,4,5-trimethyl-6-oxo-1,6-dihydropyridin-3-yl)benzyl)piperidin-4-yl)oxy)phenyl)pyrrolidine-1-carbonyl)-4,4-dimethylpent-2-enenitrile], for which the DC50 (Assay protocol 2) was in the range of 1.25 to 10 nM. For the same compound, the Dmax under setting [1] was above 75%.
Taken in the same sequence, the figures for `COc1cc(-c2cn(C)c(=O)c(C)c2C)cc(OC)c1CN1CC(=O)N(Cc2cccc3c2CCN(C(=O)/C(C#N)=C/C(C)(C)C)C3C)C(C)(C)C1` (centres unmarked) [Compound C55] were 25 to 1000 nM and above 75%.
The matching figures for `COc1cc(-c2cn(C)c(=O)c(C)c2C)cc(OC)c1CN1CCN(Cc2cccc3c2CCN(C(=O)/C(C#N)=C/C(C)(C)C)[C@H]3C2CC2)C2(CC2)C1` (single isomer, unassigned) [Compound C99, (E/Z)-2-(1-cyclopropyl-5-((7-(2,6-dimethoxy-4-(1,4,5-trimethyl-6-oxo-1,6-dihydropyridin-3-yl)benzyl)-4,7-diazaspiro[2.5]octan-4-yl)methyl)-1,2,3,4-tetrahydroisoquinoline-2-carbonyl)-4,4-dimethylpent-2-enenitrile]: below 1.25 nM and above 75%.
Taken in the same sequence, the figures for `COc1cc(-c2cn(C)c(=O)c(C)c2C)cc(OC)c1CN1CCC2(CC1)CCN(c1cccc3c1CCN(C(=O)/C(C#N)=C/C(C)(C)C)[C@@H]3C)C2` [Compound C47] were 1.25 to 10 nM and above 75%.
As for `COc1cc(-c2cn(C)c(=O)c(C)c2C)cc(OC)c1CN1CCN(Cc2cccc3c2CCN(C(=O)/C(C#N)=C/C(C)(C)C)C3C(C)C)CC12CC2` (mixture of isomers) [Compound C10, (E/Z)-2-(5-((4-(2,6-dimethoxy-4-(1,4,5-trimethyl-6-oxo-1,6-dihydropyridin-3-yl)benzyl)-4,7-diazspiro[2.5-]octan-7-yl)methyl)-1-isopropyl-1,2,3,4-tetrahydroisoquinoline-2-carbonyl)-4,4-dimethylpent-2-enenitrile], the DC50 (Assay protocol 2) is 1.25 to 10 nM. Moreover, under setting [1], the Dmax was above 75%.
As for `COc1cc(-c2cn(C)c(=O)c(C)c2C)cc(OC)c1CN1CCN(Cc2ccc3c(c2)[C@@H](C)N(C(=O)/C(C#N)=C/C(C)(C)CN2CCOCC2)CC3)C2(CC2)C1` (single isomer, unassigned) [Compound C40, (E/Z)-2-(7-((7-(2,6-dimethoxy-4-(1,4,5-trimethyl-6-oxo-1,6-dihydropyridin-3-yl)benzyl)-4,7-diazaspiro[2.5]octan-4-yl)methyl)-1-methyl-1,2,3,4-tetrahydroisoquinoline-2-carbonyl)-4,4-dimethyl-5-morpholinopent-2-enenitrile], under “Assay protocol 2”, the DC50 is 1.25 to 10 nM. The Dmax under setting [1] fell in the range of 70 to 75%.
The matching figures for `COc1cc(-c2cn(C)c(=O)c(C)c2C)cc(OC)c1CN1CC2CCC1CN2Cc1cccc2c1CCN(C(=O)/C(C#N)=C/C(C)(C)C)C2C` (mixture of isomers) [Compound B101, (E/Z)-2-(5-((5-(2,6-dimethoxy-4-(1,4,5-trimethyl-6-oxo-1,6-dihydropyridin-3-yl)benzyl)-2,5-diazabicyclo[2.2.2]octan-2-yl)methyl)-1-methyl-1,2,3,4-tetrahydroisoquinoline-2-carbonyl)-4,4-dimethylpent-2-enenitrile]: 1.25 to 10 nM and 40 to 70%.
Taken in the same sequence, the figures for `COc1cc(-c2cn(C)c(=O)c(C)c2C)cc(OC)c1CN1CCC(Cc2cccc3c2CCN(C(=O)/C(C#N)=C/C(C)(C)C)C3C)CC1` (mixture of isomers) [Compound B156, (E/Z)-2-(5-((1-(2,6-dimethoxy-4-(1,4,5-trimethyl-6-oxo-1,6-dihydropyridin-3-yl)benzyl)piperidin-4-yl)methyl)-1-methyl-1,2,3,4-tetrahydroisoquinoline-2-carbonyl)-4,4-dimethylpent-2-enenitrile] were 1.25 to 10 nM and 40 to 70%.
With `COc1cc(-c2cn(C)c(=O)c(C)c2C)cc(OC)c1CN1CCN(Cc2ccc3c(c2)[C@H](C)N(C(=O)/C(C#N)=C/C(C)(C)C)CC3)CC12CC2` (mixture of isomers) [Compound B200, (E/Z)-2-(7-((4-(2,6-dimethoxy-4-(1,4,5-trimethyl-6-oxo-1,6-dihydropyridin-3yl)benzyl)-4,7-diazaspiro[2.5]octan-7-yl)methyl)-1-methyl-1,2,3,4-tetrahydroisoquinoline-2-carbonyl)-4,4-dimethylpent-2-enenitrile], the half-maximal degradation concentration (DC50) (Assay protocol 2) lay in the range of 1.25 to 10 nM. Besides, the Dmax under setting [1] is above 75%.
On to `COc1cc(-c2cn(C)c(=O)c(C)c2C)cc(OC)c1CN1CCN(Cc2cccc3c2CCN(C(=O)/C(C#N)=C/C(C)(C)CF)C3C(C)C)C2(CC2)C1` (single isomer, unassigned) [Compound C77, (E/Z)-2-(5-((7-(2,6-dimethoxy-4-(1,4,5-trimethyl-6-oxo-1,6-dihydropyridin-3-yl)benzyl)-4,7-diazaspiro[2.5]octan-4-yl)methyl)-1-isopropyl-1,2,3,4-tetrahydroisoquinoline-2-carbonyl)-5-fluoro-4,4-dimethylpent-2-enenitrile], for which, where the note is “Assay protocol 2”, the Dmax result is “+++ (+++ = ≥75%)” and the DC50 was below 1.25 nM.
On to `CC[C@@H]1CN(Cc2cccc3c2CCN(C(=O)/C(C#N)=C/C(C)(C)C)C3C)CCN1Cc1c(OC)cc(-c2cn(C)c(=O)c(C)c2C)cc1OC` (mixture of isomers) [Compound B120, (E/Z)-2-(5-(((R)-4-(2,6-dimethoxy-4-(1,4,5-trimethyl-6-oxo-1,6-dihydropyridin-3-yl)benzyl)-3-ethylpiperazin-1-yl)methyl)-1-methyl-1,2,3,4-tetrahydroisoquinoline-2-carbonyl)-4,4-dimethylpent-2-enenitrile], for which, where the note is “Assay protocol 2”, the DC50 was in the range of 1.25 to 10 nM. Also, the Dmax under setting [1] was in the range of 70 to 75%.
Taken in the same sequence, the figures for `COc1cc(-c2cn(C)c(=O)c(C)c2C)cc(OC)c1CN1CCN(Cc2cccc3c2CCN(C(=O)/C(C#N)=C/C(C)(C)CF)C3C)C2(CC2)C1` (single isomer, unassigned) [Compound B195, (E/Z)-2-(5-((7-(2,6-dimethoxy-4-(1,4,5-trimethyl-6-oxo-1,6-dihydropyridin-3-yl)benzyl)-4,7-diazaspiro[2.5]octan-4-yl)methyl)-1-methyl-1,2,3,4-tetrahydroisoquinoline-2-carbonyl)-5-fluoro-4,4-dimethylpent-2-enenitrile] were below 1.25 nM and above 75%.
Turning to `COc1cc(-c2cn(C)c(=O)c(C)c2C)cc(OC)c1CN1CCN(Cc2cccc3c2CCN(C(=O)/C(C#N)=C/C(C)(C)C)C3C)C(C)(C)C1` (mixture of isomers) [Compound B98, (E/Z)-2-(5-((4-(2,6-dimethoxy-4-(1,4,5-trimethyl-6-oxo-1,6-dihydropyridin-3-yl)benzyl)-2,2-dimethylpiperazin-1-yl)methyl)-1-methyl-1,2,3,4-tetrahydroisoquinoline-2-carbonyl)-4,4-dimethylpent-2-enenitrile], the DC50 (Assay protocol 2) lay within 10 to 25 nM. In addition, under setting [1], the Dmax is above 75%.
The matching figures for `COc1cc(-c2cn(C)c(=O)c(C)c2C)cc(OC)c1CN1CCC(COc2cccc3c2CCN(C(=O)/C(C#N)=C/C(C)(C)C)C3C)CC1` (mixture of isomers) [Compound B86, (E/Z)-2-(5-((1-(2,6-dimethoxy-4-(1,4,5-trimethyl-6-oxo-1,6-dihydropyridin-3-yl)benzyl)piperidin-4-yl)methoxy)-1-methyl-1,2,3,4-tetrahydroisoquinoline-2-carbonyl)-4,4-dimethylpent-2-enenitrile]: 10 to 25 nM and 40 to 70%.
With `COc1cc(-c2cn(C)c(=O)c(C)c2C)cc(OC)c1CN1CCN(Cc2cccc3c2CCN(C(=O)/C(C#N)=C/C2(C(F)(F)F)CCC2)C3C)C2(CC2)C1` (mixture of isomers) [Compound B160, (E/Z)-2-[5-[[7-[[2,6-dimethoxy-4-(1,4,5-trimethyl-6-oxo-3-pyridyl)phenyl]methyl]-4,7-diazaspiro[2.5]octan-4-yl]methyl]-1-methyl-3,4-dihydro-1H-isoquinoline-2-carbonyl]-3-[1-(trifluoromethyl)cyclobutyl]prop-2-enenitrile], the DC50 (Assay protocol 2) lay in the range of 1.25 to 10 nM. Moreover, the Dmax under setting [1] was above 75%.
Take `COc1cc(-c2cn(C)c(=O)c(C)c2C)cc(OC)c1CN1[C@H](C)CN(Cc2cccc3c2CCN(C(=O)/C(C#N)=C/C(C)(C)C)C3C)C[C@@H]1C` (mixture of isomers) [Compound B114, (E/Z)-2-(5-(((3S,5R)-4-(2,6-dimethoxy-4-(1,4,5-trimethyl-6-oxo-1,6-dihydropyridin-3-yl)benzyl)-3,5-dimethylpiperazin-1-yl)methyl)-1-methyl-1,2,3,4-tetrahydroisoquinoline-2-carbonyl)-4,4-dimethylpent-2-enenitrile]: the half-maximal degradation concentration (DC50) (Assay protocol 2) is 1.25 to 10 nM. In addition, under setting [1], the Dmax is above 75%.
